Values of other authors as cited in US20060205810A1, “Platinum therapeutic combinations” (Schering Corporation, priority 2004, published 2006).

What was measured:
[1] = test system: intrinsic and acquired resistance to cisplatin; details: cell culture studies
[2] = test system: human ovarian carcinoma cells
[3] = test system: small cell lung cancer (SCLC); details: small cell lung cancer patients
[4] = incubated with fresh human whole blood in vitro

Structure (SMILES) | circumvention of resistance to cisplatin [1] | cytotoxicity compared with cisplatin [2] | complete responses [3] | median overall survival time [3] | tumor response rate ([3]; 10 of 26) | added platinum associated with red blood cells [4] | half-life for the disappearance of the drug [4]
N.NC1CCCCC1.[Cl-].[Cl-].[Pt+2] [JM118] | can partially circumvent intrinsic and acquired resistance to cisplatin | greater cytotoxicity than cisplatin |  |  |  |  | 
CC(=O)[O][Pt]([NH2])([Cl])([Cl])([NH]C1CCCCC1)[O]C(C)=O [satraplatin] | can partially circumvent intrinsic and acquired resistance to cisplatin |  | no complete responses | 210 days | 38% | 62% | 6.3 min
